ChEMBL document CHEMBL1201862, “PubChem BioAssay data set” (2004)
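Interpolation was linear, between the two tested concentrations surrounding the appropriate level; five concentrations were tested over 48 hours in 96-well plates. GI50: concentration for 50% inhibition of growth.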 The source made the active and inactive calls. No stated cut-off is given here; in the data, active = GI50 up to about 1.1 µM and inactive = higher.

Columns and labels:
Experiment in all cases: NCI-60 cell line screen, 48 h
HCT-15 = tested on: HCT-15
MDA-MB-231 = tested on: MDA-MB-231
CAKI-1 = tested on: CAKI-1
HCT-116 = tested on: HCT-116
Hs-578T = tested on: Hs-578T
OVCAR-5 = tested on: OVCAR-5
SNB-75 = tested on: SNB-75
U-251 = tested on: U-251
TK-10 = tested on: TK-10
K562 = tested on: K562
HOP-62 = tested on: HOP-62
NCI-H460 = tested on: NCI-H460
MCF7 = tested on: MCF7
SN12C = tested on: SN12C
NCI-H23 = tested on: NCI-H23
HCC 2998 = tested on: HCC 2998
RPMI-8226 = tested on: RPMI-8226
SNB-19 = tested on: SNB-19
CCRF-CEM = tested on: CCRF-CEM
SNB-78 = tested on: SNB-78

| SMILES | GI50 (HCT-15) [µM] | GI50 (MDA-MB-231) | GI50 (CAKI-1) | GI50 (HCT-116) | GI50 (Hs-578T) | GI50 (OVCAR-5) | GI50 (SNB-75) | GI50 (U-251) | GI50 (TK-10) | GI50 (K562) | GI50 (HOP-62) | GI50 (NCI-H460) | GI50 (MCF7) | GI50 (SN12C) | GI50 (NCI-H23) | GI50 (HCC 2998) | GI50 (RPMI-8226) | GI50 (SNB-19) | GI50 (CCRF-CEM) | GI50 (SNB-78) |
| --- | --- | --- | --- | --- | --- | --- | --- | --- | --- | --- | --- | --- | --- | --- | --- | --- | --- | --- | --- | --- |
| Clc1ccc(-c2cn3c(nc4ccccc43)c(-c3ccccc3)n2)cc1 | > 100 | 42.6 µM (inactive) | 16.3 µM (inactive) | 29.9 µM (inactive) | 12.3 µM (inactive) | > 38.9 µM (inactive) | 9.51 µM (inactive) | 12.8 µM (inactive) | 22 µM (inactive) | > 84.7 µM (inactive) | 11.5 µM (inactive) | 18 µM (inactive) | 28.1 µM (inactive) | 36.5 µM (inactive) | 24.5 µM (inactive) | 44.9 µM (inactive) | > 100 µM (inactive) | 13.9 µM (inactive) | > 70.8 µM (inactive) | – |
| C[C@]12CCc3nonc3C1CC[C@@H]1C2CC[C@@]2(C)C1CC[C@@H]2O (stereo partly specified) | > 100 | – | > 100 µM (inactive) | – | – | > 100 µM (inactive) | 86.7 µM (inactive) | > 100 µM (inactive) | > 100 µM (inactive) | > 100 µM (inactive) | > 100 µM (inactive) | > 100 µM (inactive) | – | > 100 µM (inactive) | > 100 µM (inactive) | > 100 µM (inactive) | > 100 µM (inactive) | > 100 µM (inactive) | > 100 µM (inactive) | > 100 µM (inactive) |
| Cc1ccc(NC(=O)CCC(=O)C2CC(=O)CCC2=O)cc1C (stereo unspecified) | > 100 | – | > 100 µM (inactive) | > 100 µM (inactive) | – | > 100 µM (inactive) | – | > 100 µM (inactive) | > 100 µM (inactive) | > 100 µM (inactive) | > 100 µM (inactive) | > 100 µM (inactive) | – | > 100 µM (inactive) | > 100 µM (inactive) | > 100 µM (inactive) | – | > 100 µM (inactive) | > 100 µM (inactive) | > 100 µM (inactive) |
| CN(/N=C/c1ccnc2ccccc12)c1c([N+](=O)[O-])cc([N+](=O)[O-])cc1[N+](=O)[O-] | 44.5 | – | 25.1 µM (inactive) | – | – | > 100 µM (inactive) | > 100 µM (inactive) | 88.3 µM (inactive) | > 100 µM (inactive) | 30.7 µM (inactive) | 88.3 µM (inactive) | > 100 µM (inactive) | – | > 100 µM (inactive) | 35.1 µM (inactive) | > 100 µM (inactive) | 26.6 µM (inactive) | > 100 µM (inactive) | 18.3 µM (inactive) | 67.3 µM (inactive) |
| Clc1sc(Cl)c2c1[C@H](Br)C[C@@H]2Cl | 17.1 | 21.4 µM (inactive) | 26.2 µM (inactive) | 27.9 µM (inactive) | 22.8 µM (inactive) | > 100 µM (inactive) | > 100 µM (inactive) | 27.7 µM (inactive) | 33.7 µM (inactive) | 38.5 µM (inactive) | 83.9 µM (inactive) | 41.6 µM (inactive) | 12.5 µM (inactive) | 29.5 µM (inactive) | 17.8 µM (inactive) | 37.8 µM (inactive) | 30.2 µM (inactive) | 57.7 µM (inactive) | 17.5 µM (inactive) | – |
| COc1ccccc1OCc1nnc(SCC(=O)O)n1-c1ccccc1 | > 100 | – | – | > 100 µM (inactive) | – | > 100 µM (inactive) | > 100 µM (inactive) | > 100 µM (inactive) | > 100 µM (inactive) | – | > 100 µM (inactive) | > 100 µM (inactive) | – | > 100 µM (inactive) | > 100 µM (inactive) | > 100 µM (inactive) | > 100 µM (inactive) | – | > 100 µM (inactive) | > 100 µM (inactive) |
| CN/N=C(/CC(=O)c1sc(NNC(C)=O)nc1C)C(=O)Nc1ccc(OC)cc1OC | > 100 | – | > 100 µM (inactive) | > 100 µM (inactive) | – | > 100 µM (inactive) | – | > 100 µM (inactive) | > 100 µM (inactive) | > 100 µM (inactive) | > 100 µM (inactive) | > 100 µM (inactive) | – | > 100 µM (inactive) | > 100 µM (inactive) | > 100 µM (inactive) | > 100 µM (inactive) | > 100 µM (inactive) | > 100 µM (inactive) | > 100 µM (inactive) |
| CC(C)c1cccc(C(C)C)c1NC1=CC(=O)C(=O)c2ccccc21 | > 100 | – | > 100 µM (inactive) | > 100 µM (inactive) | – | > 100 µM (inactive) | – | > 100 µM (inactive) | > 100 µM (inactive) | > 100 µM (inactive) | > 100 µM (inactive) | > 100 µM (inactive) | – | > 100 µM (inactive) | 72.9 µM (inactive) | > 100 µM (inactive) | > 100 µM (inactive) | > 100 µM (inactive) | > 100 µM (inactive) | > 100 µM (inactive) |
| O=[N+]([O-])c1ccc(-c2csc(=[N+]3CCCCC3)s2)cc1 | 29.2 | – | 75.7 µM (inactive) | 28.3 µM (inactive) | – | 9.75 µM (inactive) | 3.61 µM (inactive) | 2.54 µM (inactive) | > 83.4 µM (inactive) | 9.71 µM (inactive) | 3.1 µM (inactive) | 13.6 µM (inactive) | – | 4.48 µM (inactive) | 4.41 µM (inactive) | 21.1 µM (inactive) | 20.2 µM (inactive) | 4.88 µM (inactive) | 4.91 µM (inactive) | 44.1 µM (inactive) |
| Cc1ccc(C(O)/C(=N/N)c2nc3ccc([N+](=O)[O-])cc3nc2O)cc1 (stereo unspecified) | 28 | – | – | > 100 µM (inactive) | – | > 100 µM (inactive) | 43.7 µM (inactive) | > 100 µM (inactive) | > 100 µM (inactive) | 22.6 µM (inactive) | > 100 µM (inactive) | > 100 µM (inactive) | – | > 100 µM (inactive) | > 100 µM (inactive) | 4.66 µM (inactive) | 40.6 µM (inactive) | > 100 µM (inactive) | 13.5 µM (inactive) | > 100 µM (inactive) |
| CCCCCN(CCCCC)C(=O)[C@H](CCC(=O)OCc1ccccc1)NC(=O)c1cc2ccccc2[nH]1 | > 100 | – | > 100 µM (inactive) | > 100 µM (inactive) | – | > 100 µM (inactive) | > 100 µM (inactive) | > 100 µM (inactive) | – | > 100 µM (inactive) | > 100 µM (inactive) | > 100 µM (inactive) | – | > 100 µM (inactive) | > 100 µM (inactive) | > 100 µM (inactive) | 0.343 µM (active) | > 100 µM (inactive) | > 100 µM (inactive) | > 100 µM (inactive) |
| COc1cccc(C2=NC(C(C)C)CO2)c1OC (stereo unspecified) | > 100 | – | > 100 µM (inactive) | – | – | > 100 µM (inactive) | > 100 µM (inactive) | – | > 100 µM (inactive) | > 100 µM (inactive) | > 100 µM (inactive) | > 100 µM (inactive) | – | > 100 µM (inactive) | > 100 µM (inactive) | > 100 µM (inactive) | > 100 µM (inactive) | > 100 µM (inactive) | > 100 µM (inactive) | > 100 µM (inactive) |
| COC(=O)[C@H]1C2CC[C@@H]3C45C[C@@H](c6ccoc6)O[C@@H]4O[C@@H](O2)C31CCC5C (stereo partly specified) | 86.3 | – | > 100 µM (inactive) | > 100 µM (inactive) | – | > 100 µM (inactive) | – | > 100 µM (inactive) | > 100 µM (inactive) | 32.1 µM (inactive) | > 100 µM (inactive) | > 100 µM (inactive) | – | > 100 µM (inactive) | > 100 µM (inactive) | 95.9 µM (inactive) | > 100 µM (inactive) | > 100 µM (inactive) | 56.4 µM (inactive) | 25.7 µM (inactive) |
| Clc1ccc(CNc2nc3ccccc3nc2-c2cccs2)c(Cl)c1 | 38.1 | – | – | 49 µM (inactive) | – | > 100 µM (inactive) | – | 89.3 µM (inactive) | > 100 µM (inactive) | > 100 µM (inactive) | > 100 µM (inactive) | > 100 µM (inactive) | – | > 100 µM (inactive) | 68.5 µM (inactive) | 43.5 µM (inactive) | 56.1 µM (inactive) | > 100 µM (inactive) | 98.9 µM (inactive) | > 100 µM (inactive) |
| CSc1ncc2c(C#N)c3sc4ccccc4n3c(=O)c2n1 | 80.4 | 41.1 µM (inactive) | 73.8 µM (inactive) | > 100 µM (inactive) | 24.6 µM (inactive) | > 100 µM (inactive) | 43.5 µM (inactive) | 24 µM (inactive) | 61.1 µM (inactive) | > 100 µM (inactive) | 30.4 µM (inactive) | 22.4 µM (inactive) | 16.8 µM (inactive) | > 100 µM (inactive) | > 100 µM (inactive) | > 100 µM (inactive) | > 100 µM (inactive) | 37.8 µM (inactive) | > 100 µM (inactive) | – |
| COC(=O)C(C(=O)C(=O)Nc1cccc([N+](=O)[O-])c1)c1nc2ccc([N+](=O)[O-])cc2nc1O (stereo unspecified) | > 100 | – | > 100 µM (inactive) | > 100 µM (inactive) | – | > 100 µM (inactive) | 70.6 µM (inactive) | > 100 µM (inactive) | > 100 µM (inactive) | > 100 µM (inactive) | > 100 µM (inactive) | > 100 µM (inactive) | – | > 100 µM (inactive) | > 100 µM (inactive) | > 100 µM (inactive) | – | > 100 µM (inactive) | > 100 µM (inactive) | > 100 µM (inactive) |
| CN1C(=O)CSC1=S [3-METHYL-RHODANINE] | > 100 | – | > 100 µM (inactive) | > 100 µM (inactive) | – | > 100 µM (inactive) | > 100 µM (inactive) | > 100 µM (inactive) | > 100 µM (inactive) | > 100 µM (inactive) | > 100 µM (inactive) | > 100 µM (inactive) | – | > 100 µM (inactive) | > 100 µM (inactive) | – | > 100 µM (inactive) | – | > 100 µM (inactive) | > 100 µM (inactive) |
